Measurements from the supplement of paper PMC10307832.

What was measured:
Assay in all cases: relative viability (nuclei count vs DMSO), 5 days (fraction); higher = more cells survive
Sorafenib + Dasatinib = compound: CNC(=O)c1cc(Oc2ccc(NC(=O)Nc3ccc(Cl)c(C(F)(F)F)c3)cc2)ccn1 [Sorafenib] + Cc1nc(Nc2ncc(C(=O)Nc3c(C)cccc3Cl)s2)cc(N2CCN(CCO)CC2)n1 [Dasatinib] (partner 0.075 µM)
Procedure, shortened: (§1)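 Relative viability is defined as nuclei in treated wells over nuclei in vehicle wells. Duplicate plates were run and medians reported. Lung cancer cell lines in 1536-well plates were dosed by pin tool one day after seeding, with one drug or with a fixed anchor-drug dose plus five library-drug doses (not always all listed) in √10 steps, and nuclei were counted after 5 days.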

Sorafenib + OSI-027 = compound: CNC(=O)c1cc(Oc2ccc(NC(=O)Nc3ccc(Cl)c(C(F)(F)F)c3)cc2)ccn1 [Sorafenib] + COc1cccc2cc(-c3nc([C@H]4CC[C@H](C(=O)O)CC4)n4ncnc(N)c34)[nH]c12 [OSI-027] (partner 0.5 µM)
Procedure, shortened: as §1

Sorafenib + Phenformin = compound: CNC(=O)c1cc(Oc2ccc(NC(=O)Nc3ccc(Cl)c(C(F)(F)F)c3)cc2)ccn1 [Sorafenib] + N=C(N)NC(=N)NCCc1ccccc1 [Phenformin] (partner 250 µM)
Procedure, shortened: as §1

Sorafenib + Trametinib = compound: CNC(=O)c1cc(Oc2ccc(NC(=O)Nc3ccc(Cl)c(C(F)(F)F)c3)cc2)ccn1 [Sorafenib] + CC(=O)Nc1cccc(-n2c(=O)n(C3CC3)c(=O)c3c(Nc4ccc(I)cc4F)n(C)c(=O)c(C)c32)c1 [Trametinib] (partner 0.02 µM)
Procedure, shortened: as §1

Sorafenib + Luminespib = compound: CNC(=O)c1cc(Oc2ccc(NC(=O)Nc3ccc(Cl)c(C(F)(F)F)c3)cc2)ccn1 [Sorafenib] + CCNC(=O)c1noc(-c2cc(C(C)C)c(O)cc2O)c1-c1ccc(CN2CCOCC2)cc1 [Luminespib] (partner 0.01 µM)
Procedure, shortened: as §1

| Cell Line | relative viability (Sorafenib + Dasatinib; first compound 0.08 µM) | relative viability (Sorafenib + Dasatinib; first compound 0.253 µM) | relative viability (Sorafenib + Dasatinib; first compound 2.53 µM) | relative viability (Sorafenib + Dasatinib; first compound 8 µM) | relative viability (Sorafenib + OSI-027; first compound 0.08 µM) | relative viability (Sorafenib + OSI-027; first compound 0.253 µM) | relative viability (Sorafenib + OSI-027; first compound 2.53 µM) | relative viability (Sorafenib + OSI-027; first compound 8 µM) | relative viability (Sorafenib + Phenformin; first compound 0.08 µM) | relative viability (Sorafenib + Phenformin; first compound 0.253 µM) | relative viability (Sorafenib + Phenformin; first compound 2.53 µM) | relative viability (Sorafenib + Phenformin; first compound 8 µM) | relative viability (Sorafenib + Trametinib; first compound 0.08 µM) | relative viability (Sorafenib + Trametinib; first compound 0.253 µM) | relative viability (Sorafenib + Trametinib; first compound 2.53 µM) | relative viability (Sorafenib + Trametinib; first compound 8 µM) | relative viability (Sorafenib + Luminespib; first compound 0.08 µM) | relative viability (Sorafenib + Luminespib; first compound 0.253 µM) | relative viability (Sorafenib + Luminespib; first compound 2.53 µM) | relative viability (Sorafenib + Luminespib; first compound 8 µM) |
| --- | --- | --- | --- | --- | --- | --- | --- | --- | --- | --- | --- | --- | --- | --- | --- | --- | --- | --- | --- | --- |
| HCC-827 | 0.38 | 0.435 | 0.299 | 0.327 | 0.956 | 0.715 | 0.723 | 0.723 | 0.447 | 0.399 | 0.447 | 0.424 | 0.547 | 0.582 | 0.457 | 0.422 | 0.709 | 0.525 | 0.59 | 0.638 |
| HOP-62 | 0.796 | 0.527 | 0.584 | 0.59 | 0.848 | 0.631 | 0.759 | 0.657 | 0.682 | 0.558 | 0.54 | 0.369 | 0.438 | 0.45 | 0.372 | 0.209 | 0.981 | 0.865 | 0.705 | 0.886 |
| LC-2-ad | 0.721 | 0.376 | 0.427 | 0.33 | 0.889 |  | 0.9 | 0.573 | 0.595 | 0.495 | 0.613 | 0.453 | 0.934 | 0.822 | 0.732 | 0.396 | 1.01 | 1.04 | 1.06 | 0.879 |
| LCLC-97TM1 | 0.984 | 0.841 | 0.683 | 0.676 | 0.552 | 0.515 | 0.336 | 0.272 | 0.413 | 0.377 | 0.325 | 0.356 | 0.198 | 0.199 | 0.133 | 0.103 | 0.97 | 0.743 | 0.716 | 0.56 |
| LCLC-103H | 0.617 | 0.424 | 0.44 | 0.497 | 0.556 | 0.425 | 0.528 | 0.469 | 0.401 | 0.309 | 0.336 | 0.344 | 0.68 | 0.731 | 0.691 | 0.674 | 0.964 | 0.939 | 1.03 | 0.837 |
| LK-2 | 0.259 | 0.267 | 0.341 | 0.263 | 0.201 | 0.193 | 0.19 | 0.139 | 0.562 | 0.274 | 0.38 | 0.0899 | 0.78 | 0.764 | 0.512 | 0.239 | 0.228 | 0.197 | 0.175 | 0.172 |
| LOU-NH91 | 0.692 | 0.52 | 0.686 | 0.361 | 0.783 | 0.713 | 0.788 | 0.799 | 0.784 | 0.678 | 0.73 | 0.489 | 0.782 | 0.769 | 0.837 | 0.746 | 0.306 | 0.359 | 0.418 | 0.336 |
| LU99A | 0.512 | 0.504 | 0.608 | 0.351 | 0.299 | 0.27 | 0.299 | 0.272 | 0.978 | 0.864 | 0.748 | 0.408 | 0.509 | 0.404 | 0.252 | 0.263 | 0.359 | 0.25 | 0.204 | 0.318 |
| LXF-289 | 0.292 | 0.205 | 0.187 | 0.196 | 0.787 | 0.814 |  | 0.764 | 0.553 | 0.513 | 0.541 | 0.476 | 0.638 |  | 0.617 | 0.513 | 0.706 | 0.648 | 0.634 | 0.588 |
| NCI-H23 | 0.804 | 0.691 | 0.646 | 0.709 |  | 0.501 | 0.488 | 0.398 | 0.829 |  | 0.726 | 0.74 | 0.406 | 0.397 | 0.288 | 0.225 | 0.225 |  | 0.228 | 0.213 |
| NCI-H322M | 0.261 | 0.259 | 0.319 | 0.302 | 0.615 | 0.48 | 0.542 | 0.587 | 0.813 | 0.67 | 0.807 | 0.795 | 0.769 | 0.52 | 0.455 | 0.481 | 1.03 | 1.03 | 1.24 | 1.06 |
| NCI-H358 | 0.202 | 0.186 | 0.379 | 0.151 |  | 0.75 | 0.839 |  | 0.442 | 0.392 | 0.468 | 0.146 | 0.14 | 0.143 | 0.116 | 0.107 | 0.242 | 0.285 | 0.295 | 0.239 |
| NCI-H441 |  |  | 0.503 | 0.308 | 0.588 |  | 0.423 | 0.297 | 0.976 |  | 0.745 | 0.412 | 0.564 | 0.408 | 0.457 | 0.27 | 0.326 |  | 0.29 | 0.287 |
| NCI-H460 | 0.554 | 0.541 | 0.498 | 0.416 | 0.761 | 0.596 | 0.459 | 0.0191 | 0.528 | 0.495 | 0.462 | 0.046 | 0.225 | 0.154 | 0.126 | 0.0388 | 0.0329 | 0.0278 | 0.0236 | 0.0147 |
| NCI-H520 | 0.231 | 0.225 | 0.216 | 0.174 | 0.352 | 0.254 | 0.246 | 0.246 | 0.673 | 0.316 | 0.574 | 0.253 | 0.934 | 0.403 | 0.518 | 0.217 | 0.21 | 0.216 | 0.232 | 0.218 |
| NCI-H522 | 0.904 |  | 0.859 | 0.772 | 0.649 | 0.631 | 0.672 | 0.552 | 0.512 | 0.526 | 0.695 | 0.478 | 0.789 | 0.664 | 0.748 | 0.58 | 1.28 | 1.19 | 0.929 | 0.992 |
| NCI-H1563 | 0.496 | 0.469 | 0.478 | 0.454 | 0.792 | 0.766 | 0.687 | 0.7 | 0.709 | 0.643 | 0.749 | 0.532 |  |  |  |  | 0.533 | 0.471 | 0.527 | 0.529 |
